Test results taken from patent US5045566A, “Novel imidate insecticides” (ICI Americas Inc., priority 1989, dated 1991).

How the values were obtained:
Assay type in all cases: in vivo
[1] = system: Housefly [Musca domestica]; assay: Housefly contact mortality in dishes (HF), 48 hours; conditions: μg of test compound per 25 female flies
In short: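 LC50 (μg compound per 25 female flies) derives from dosage-mortality curves of 48 h kill. Flies, females 1-2 days old, were held 25 per cage over a dish coated with dried acetone deposit, starting at 100 μg per cage and descending.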

[2] = system: Black Bean Aphid [Aphis fabae (Scop.)]; assay: Black bean aphid spray test on nasturtium (BBA), 48 hours; conditions: percent of test compound in sprayed solution
In short: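 LC50, given as percent test compound in the sprayed liquid, was calculated from dosage-mortality curves using concentrations from 0.05% downward. Sprays in 50:50 acetone-water went to runoff on ~5 cm nasturtiums carrying 25-50 aphids of mixed ages, one day after infestation. Deaths were counted 48 h later under greenhouse conditions.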

[3] = system: Cabbage Looper [Trichoplusia ni (Hubner)]; assay: Cabbage looper leaf dip (CL), 3-5 days; conditions: percent in solution, second-instar larvae
In short: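 Squash cotyledons dipped in test solution (acetone-water 50-50, ≤0.1%), dried, offered to 5 second-instar larvae; mortality after 3-5 days gives LC50.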

[4] = system: Aster Leafhopper [Macrosteles fascifrens (Stal)]; assay: Aster leafhopper on dipped oat seedlings (LH), 48 hours; conditions: percent in solution, adults/nymphs
Protocol: The compounds in Tables 1 and 2 above were tested for insecticidal activity using the following testing procedures. LC50 values, based on the results of these tests and calculated according to dosage-mortality curves, are expressed in Table 3.
Aster Leafhopper [Macrosteles fascifrens (Stal)]
Oat seedlings (Avena sp) were grown in a commercial potting soil in cups. When the plants were approximately 10 cm tall they were thinned to three plants per cup and dipped for 2-3 seconds in 50-50 acetone-water solutions of the test compounds. When the plants had dried, a clear plastic tube was placed over them and the bottom end pressed into the cup. Ten aster leafhopper adults/nymphs were then placed in each tube and the tops of the tubes covered with white organdy cloth. Mortality counts were made after 48 hours. Test concentrations ranged from 0.05% down to that at which 50% mortality occurred. The LC50 values are expressed below in Table 3 under the heading "LH" in terms of the percent of the test compound in the solution.

[5] = system: Maize weevil [Sitophilus zeamais (Motschulsky)]; assay: Maize weevil on dipped corn seeds (MW), 48 hours; conditions: percent in solution, adult weevils
In short: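 LC50, given as percent of compound in dipping solution, comes from dosage-mortality curves over concentrations descending from 0.01%. Four corn seeds soaked 2-3 s in 50:50 acetone:water solution were dried and held with 10 adult weevils, about 25° C, mortality read after 48 h.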

[6] = system: Tobacco Budworm [Heliothis virescens (Fabricius)] eggs; assay: Tobacco budworm eggs (TBW-E); conditions: percent in solution; 2-day old eggs
In short: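 Step 1: dip 2-day old egg patches in acetone test solutions (top concentration 0.1%). Step 2: hold in dishes with rearing medium at 78° F. Step 3: record mortality after control hatch and feeding.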

| SMILES | LC50 HF [1] | LC50 BBA [2] | LC50 CL [3] | LC50 LH [4] | LC50 MW [5] | LC50 TBW E (eggs) [6] |
| --- | --- | --- | --- | --- | --- | --- |
| CC1(C(=Nc2ccc(Cl)cc2)OCc2cccc(Oc3ccccc3)c2)CC1 [Compound 5] | 21 µg | 0.001% | 0.005% | > 0.05% | > 0.01% |  |
| C=C(C)C(=Nc1ccc(Cl)cc1)OCc1cccc(Oc2ccccc2)c1 [Compound 6] | 17 µg | 0.001% | 0.02% | > 0.05% | > 0.01% | 0.015% |
| CCC(=Nc1ccc(Cl)cc1)OCc1cccc(Oc2ccccc2)c1 [Compound 11] | 6 µg | 0.01% | 0.025% | > 0.05% | > 0.01% | > 0.1% |
| CC(C)C(=Nc1cc(Cl)ccc1Cl)OCc1cccc(Oc2ccccc2)c1 [Compound 13] | > 100 µg | 0.003% | 0.014% | > 0.05% | > 0.01% | > 0.1% |
| CC(C)C(=Nc1ccccc1Cl)OCc1cccc(Oc2ccccc2)c1 [Compound 17] | 75 µg | 0.03% | 0.03% | > 0.05% | > 0.01% | > 0.1% |
| N#CC(=Nc1ccc(Cl)cc1)OCc1cccc(Oc2ccccc2)c1 [Compound 21] | 7 µg | > 0.1% | 0.02% | > 0.05% | > 0.01% | > 0.1% |
| CC(C)(C)C(=Nc1ccc(Cl)c(Cl)c1)OCc1cccc(Oc2ccccc2)c1 [Compound 25] | > 100 µg | > 0.1% | 0.01% | > 0.05% | > 0.01% | > 0.1% |
| FC(F)(F)C(=Nc1ccc(Cl)cc1)OCc1cccc(Oc2ccccc2)c1 [Compound 35] | 15 µg |  | 0.008% | > 0.05% | > 0.01% | 0.03% |
| CC(C)C(=Nc1ccccc1)OCc1cccc(Oc2ccccc2)c1 [Compound 43] | 7 µg | 0.001% | 0.018% | > 0.05% | > 0.01% | 0.05% |
| Fc1ccc(N=C(OCc2cccc(Oc3ccccc3)c2)C(F)F)cc1 [Compound 50] | 43 µg | 0.01% | 0.02% | > 0.05% | > 0.01% | > 0.05% |
| CC(C)C(=Nc1ccccc1C(F)(F)F)OCc1cccc(Oc2ccccc2)c1 [Compound 72] | > 100 µg | > 0.05% | 0.08% | > 0.05% | > 0.01% | > 0.1% |
| CCS(=O)(=O)c1ccc(N=C(OCc2cccc(Oc3ccccc3)c2)C(C)C)cc1Cl [Compound 112] | > 100 µg | 0.05% | 0.025% | > 0.05% | > 0.01% | > 0.1% |
| Fc1ccc(N=C(OCc2cccc(Oc3ccccc3)c2)C(F)(F)C(F)(F)F)cc1Cl [Compound 117] | 55 µg | > 0.05% | 0.006% | 0.0003% | > 0.01% | > 0.1% |
| CC(C)C(=Nc1ccc(F)c(Cl)c1)OCc1cccc(Oc2ccccc2F)c1 [Compound 119] | 27 µg | > 0.05% | 0.0007% | 0.0008% | > 0.01% | 0.048% |
| CC(C)C(=Nc1ccc(Cl)cc1)OCc1cccc(Oc2ccc(F)cc2)c1 [Compound 189] | 17 µg |  | 0.00027% | 0.002% | > 0.01% | 0.07% |
| CC(C)C(=Nc1ccc(Cl)c(C(F)(F)F)c1)OCc1cccc(Oc2ccc(F)cc2)c1 [Compound 193] | 100 µg |  | 0.00075% | 0.001% | > 0.01% | > 0.1% |
| CSc1ccc(Oc2cccc(COC(=Nc3ccc(F)cc3)C(C)C)c2)cc1 [Compound 257] | > 100 µg | 0.05% | 0.008% | > 0.05% |  | > 0.1% |
| Fc1ccc(Oc2cccc(COC(=Nc3ccc(F)c(Cl)c3)C(F)(F)C(F)(F)F)c2)cc1 [Compound 258] | > 100 µg | 0.01% | 0.003% | > 0.05% |  | > 0.1% |
| CC(C)C(=Nc1ccc(Cl)cc1)OC(C)c1cccc(Oc2ccccc2)c1 (stereo not drawn) [Compound 457] | > 100 µg | > 0.05% | 0.009% | > 0.05% |  | > 0.05% |
| CC(C)C(=Nc1ccc2c(c1)OCO2)OCc1cccc(Oc2ccc(Cl)cc2)n1 [Compound 466] | 13 µg |  | 0.0008% | > 0.05% | 0.01% | > 0.1% |
| COCc1c(F)c(F)c(COC(=Nc2ccc(F)c(Cl)c2F)C(C)C)c(F)c1F [Compound 522] |  | 0.002% | > 0.1% | 0.05% | > 0.01% | > 0.1% |
| CC(C)C(=Nc1cccc(C(F)(F)F)c1)OCc1cc(Oc2ccc(F)cc2)ccn1 [Compound 528] |  | > 0.05% | 0.0075% | > 0.05% | > 0.01% | > 0.1% |
| CC(C)C(=Nc1ccc(F)c(Cl)c1)OCc1cc(Oc2ccc(F)cc2)ccn1 [Compound 529] |  | > 0.05% | > 0.0025% | > 0.05% | > 0.01% | > 0.1% |
| CC(C)C(=Nc1ccc(OC(F)(F)F)cc1)OCc1cccc(Cc2ccccc2)c1 [Compound 538] | 75 µg |  | > 0.1% | > 0.05% | > 0.01% | > 0.1% |
